The compounds below were run against T1, FLT3-D835Y (Homo sapiens, UniProt P36888, D835Y) (assay: FLT3-D835Y biochemical kinase assay (AlphaScreen)).
T1 construct: purchased Invitrogen PV3967
T1 sequence (P36888 27-993 D835Y): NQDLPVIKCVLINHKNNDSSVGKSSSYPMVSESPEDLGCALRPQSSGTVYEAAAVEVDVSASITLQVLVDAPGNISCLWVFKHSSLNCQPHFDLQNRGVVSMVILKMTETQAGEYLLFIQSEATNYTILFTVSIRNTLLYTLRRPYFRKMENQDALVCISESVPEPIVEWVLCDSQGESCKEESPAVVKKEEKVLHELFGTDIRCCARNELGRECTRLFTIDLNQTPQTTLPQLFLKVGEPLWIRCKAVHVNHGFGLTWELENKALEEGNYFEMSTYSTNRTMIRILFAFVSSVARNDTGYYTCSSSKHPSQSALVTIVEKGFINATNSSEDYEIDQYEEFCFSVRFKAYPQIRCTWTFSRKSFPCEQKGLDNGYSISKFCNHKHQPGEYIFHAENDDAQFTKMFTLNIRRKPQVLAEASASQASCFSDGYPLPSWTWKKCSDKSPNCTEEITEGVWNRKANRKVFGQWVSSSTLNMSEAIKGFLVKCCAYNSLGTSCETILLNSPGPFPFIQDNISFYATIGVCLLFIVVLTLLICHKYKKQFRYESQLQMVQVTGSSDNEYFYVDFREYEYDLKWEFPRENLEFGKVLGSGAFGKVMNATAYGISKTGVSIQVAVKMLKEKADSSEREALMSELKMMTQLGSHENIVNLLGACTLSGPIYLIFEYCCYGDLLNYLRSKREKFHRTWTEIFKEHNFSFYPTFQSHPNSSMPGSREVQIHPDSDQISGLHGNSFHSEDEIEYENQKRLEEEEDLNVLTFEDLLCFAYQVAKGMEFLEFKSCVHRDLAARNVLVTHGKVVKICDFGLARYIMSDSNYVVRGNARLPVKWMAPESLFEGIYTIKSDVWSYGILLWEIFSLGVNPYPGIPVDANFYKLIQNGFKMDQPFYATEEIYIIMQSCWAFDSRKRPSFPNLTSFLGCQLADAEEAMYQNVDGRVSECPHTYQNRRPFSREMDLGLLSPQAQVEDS
Outline: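 Recombinant FLT3 mutant kinases phosphorylate biotin-poly(Glu4-Tyr) peptide (30 nM) at 10 μM ATP for D835Y or 100 μM for ITD. Phosphorylation detected by AlphaScreen: streptavidin donor beads (20 min) then anti-phosphotyrosine PY20 acceptor beads (60 min, RT), signal at 580 nm; inhibition lowers signal.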

IC50, 0.0001 to 1 µM:
c1nc(N2CCOCC2)ncc1-c1cnc2[nH]cc(-c3ccc4ncn(C5CCCNC5)c4c3)c2c1 (centres unmarked) [P-277, 4-[5-[3-[3-(3-piperidyl)benzimidazol-5-yl]-1H-pyrrolo[2,3-b]pyridin-5-yl]pyrimidin-2-yl]morpholine]
COc1cc(C#Cc2cnc3[nH]cc(-c4ccc5ncn(C(C)(C)C)c5c4)c3n2)ccn1 [P-279, 7-(1-(tert-butyl)-1H-benzo[d]imidazol-6-yl)-2-((2-methoxypyridin-4-yl)ethynyl)-5H-pyrrolo[2,3-b]pyrazine]
CCN1CCN(c2cccc(-c3cnc4[nH]cc(-c5ccc6ncn(C7CCCNC7)c6c5)c4n3)c2)CC1 (centres unmarked) [P-329, 2-[3-(4-ethylpiperazin-1-yl)phenyl]-7-[3-(3-piperidyl)benzimidazol-5-yl]-5H-pyrrolo[2,3-b]pyrazine]
CCN1CCN(c2ccc(-c3cnc4[nH]cc(-c5ccc6ncn(C(C)(C)C)c6c5)c4n3)cc2)CC1 [P-358, 7-(3-tert-butylbenzimidazol-5-yl)-2-[4-(4-ethylpiperazin-1-yl)phenyl]-5H-pyrrolo[2,3-b]pyrazine]
COc1ncc(-c2cnc3[nH]cc(-c4ccc5ncn(C6CCCNC6)c5c4)c3c2)cn1 (centres unmarked) [P-276, 5-(2-methoxypyrimidin-5-yl)-3-[3-(3-piperidyl)benzimidazol-5-yl]-1H-pyrrolo[2,3-b]pyridine]
CCN1CCN(c2cccc(-c3cnc4[nH]cc(-c5ccc6ncn(C(C)(C)C)c6c5)c4n3)c2)CC1 [P-330, 7-(3-tert-butylbenzimidazol-5-yl)-2-[3-(4-ethylpiperazin-1-yl)phenyl]-5H-pyrrolo[2,3-b]pyrazine]
Cn1cnc2ccc(-c3c[nH]c4nnc(Cl)cc34)cc21 [P-313, 3-chloro-5-(3-methylbenzimidazol-5-yl)-7H-pyrrolo[2,3-c]pyridazine]
COc1cc(C#Cc2cnc3[nH]cc(-c4ccc5ncn(C6CCCNC6)c5c4)c3n2)ccn1 (centres unmarked) [P-280, 2-((2-methoxypyridin-4-yl)ethynyl)-7-(1-(piperidin-3-yl)-1H-benzo[d]imidazol-6-yl)-5H-pyrrolo[2,3-b]pyrazine]
CC(C)(C)n1cnc2ccc(-c3c[nH]c4ncc(-c5cnc(C#N)nc5)nc34)cc21 [P-352, 5-[7-(3-tert-butylbenzimidazol-5-yl)-5H-pyrrolo[2,3-b]pyrazin-2-yl]pyrimidine-2-carbonitrile]
CN1CCN(c2cccc(-c3cnc4[nH]cc(-c5ccc6ncn(C7CCCNC7)c6c5)c4n3)c2)CC1 (centres unmarked) [P-332, 2-[3-(4-methylpiperazin-1-yl)phenyl]-7-[3-(3-piperidyl)benzimidazol-5-yl]-5H-pyrrolo[2,3-b]pyrazine]
COc1cnc2[nH]cc(-c3ccc4ncn(C(C)(C)C)c4c3)c2c1 [P-074, 1-tert-butyl-6-(5-methoxy-1H-pyrrolo[2,3-b]pyridin-3-yl)benzimidazole]
c1cc(N2CCOCC2)ncc1-c1cnc2[nH]cc(-c3ccc4ncn(C5CCCNC5)c4c3)c2c1 (centres unmarked) [P-321, 4-[5-[3-[3-(3-piperidyl)benzimidazol-5-yl]-1H-pyrrolo[2,3-b]pyridin-5-yl]-2-pyridyl]morpholine]
CC(C)(C)n1cnc2ccc(-c3c[nH]c4ncc(-c5ccc(N6CCCCC6)cc5)nc34)cc21 [P-345, 7-(3-tert-butylbenzimidazol-5-yl)-2-[4-(1-piperidyl)phenyl]-5H-pyrrolo[2,3-b]pyrazine]
CC(C)(C)n1cnc2ccc(-c3c[nH]c4ncc(-c5cccc(N6CCCCC6)c5)nc34)cc21 [P-336, 7-(3-tert-butylbenzimidazol-5-yl)-2-[3-(1-piperidyl)phenyl]-5H-pyrrolo[2,3-b]pyrazine]
CC(C)(C)n1cnc2ccc(-c3c[nH]c4ncc(-c5ccnc(C#N)c5)cc34)cc21 [P-291, 4-[3-(3-tert-butylbenzimidazol-5-yl)-1H-pyrrolo[2,3-b]pyridin-5-yl]pyridine-2-carbonitrile]
Cc1cc(C#Cc2cnc3[nH]cc(-c4ccc5ncn(C(C)(C)C)c5c4)c3n2)cc(C)n1 [P-282, 7-(3-tert-butylbenzimidazol-5-yl)-2-[2-(2,6-dimethyl-4-pyridyl)ethynyl]-5H-pyrrolo[2,3-b]pyrazine]
CC(C)(C)n1cnc2ccc(-c3c[nH]c4ncc(-c5ccc(N6CCC(F)(F)CC6)nc5)nc34)cc21 [P-356, 7-(3-tert-butylbenzimidazol-5-yl)-2-[6-(4,4-difluoro-1-piperidyl)-3-pyridyl]-5H-pyrrolo[2,3-b]pyrazine]
CN1CCN(c2ccc(-c3cnc4[nH]cc(-c5ccc6ncn(C(C)(C)C)c6c5)c4n3)cc2)CC1 [P-341, 7-(3-tert-butylbenzimidazol-5-yl)-2-[4-(4-methylpiperazin-1-yl)phenyl]-5H-pyrrolo[2,3-b]pyrazine]
Cc1cc(C#Cc2cnc3[nH]cc(-c4ccc5ncn(C6CCCNC6)c5c4)c3n2)cc(C)n1 (centres unmarked) [P-283, 2-[2-(2,6-dimethyl-4-pyridyl)ethynyl]-7-[3-(3-piperidyl)benzimidazol-5-yl]-5H-pyrrolo[2,3-b]pyrazine]
Cc1ccc(-c2cnc3[nH]cc(-c4ccc5ncn(C(C)(C)C)c5c4)c3n2)cn1 [P-388, 7-(3-tert-butylbenzimidazol-5-yl)-2-(6-methyl-3-pyridyl)-5H-pyrrolo[2,3-b]pyrazine]
CC(C)(C)n1cnc2ccc(-c3c[nH]c4nnc(Cl)cc34)cc21 [P-314, 5-(3-tert-butylbenzimidazol-5-yl)-3-chloro-7H-pyrrolo[2,3-c]pyridazine]
CC(C)(C)n1cnc2ccc(-c3c[nH]c4ncc(-c5ccnc(C#N)c5)nc34)cc21 [P-301, 4-[7-(3-tert-butylbenzimidazol-5-yl)-5H-pyrrolo[2,3-b]pyrazin-2-yl]pyridine-2-carbonitrile]
CCN1CCN(c2cc(-c3cnc4[nH]cc(-c5ccc6ncn(C(C)(C)C)c6c5)c4n3)ccn2)CC1 [P-328, 7-(3-tert-butylbenzimidazol-5-yl)-2-[2-(4-ethylpiperazin-1-yl)-4-pyridyl]-5H-pyrrolo[2,3-b]pyrazine]
CC(C)(C)n1cnc2ccc(-c3c[nH]c4ncc(-c5cnc(O)nc5)nc34)cc21 [P-363, 5-[7-(3-tert-butylbenzimidazol-5-yl)-5H-pyrrolo[2,3-b]pyrazin-2-yl]pyrimidin-2-ol]
Cc1ncc(C#Cc2cnc3[nH]cc(-c4ccc5ncn(C(C)(C)C)c5c4)c3n2)cn1 [P-284, 7-(3-tert-butylbenzimidazol-5-yl)-2-[2-(2-methylpyrimidin-5-yl)ethynyl]-5H-pyrrolo[2,3-b]pyrazine]
CC(C)(C)n1cnc2ccc(-c3c[nH]c4ncc(-c5ccc(C#N)nc5)cc34)cc21 [P-290, 5-[3-(3-tert-butylbenzimidazol-5-yl)-1H-pyrrolo[2,3-b]pyridin-5-yl]pyridine-2-carbonitrile]
CC(C)(C)n1cnc2ccc(-c3c[nH]c4ncc(-c5cccc(N6CCOCC6)c5)cc34)cc21 [P-316, 4-[3-[3-(3-tert-butylbenzimidazol-5-yl)-1H-pyrrolo[2,3-b]pyridin-5-yl]phenyl]morpholine]
CC(C)(C)n1cnc2ccc(-c3c[nH]c4ncc(-c5cnc(N6CCC(F)(F)CC6)nc5)nc34)cc21 [P-357, 7-(3-tert-butylbenzimidazol-5-yl)-2-[2-(4,4-difluoro-1-piperidyl)pyrimidin-5-yl]-5H-pyrrolo[2,3-b]pyrazine]
c1cc(-c2cnc3[nH]cc(-c4ccc5ncn(C6CCCNC6)c5c4)c3n2)cc(N2CCCCC2)n1 (centres unmarked) [P-339, 7-[3-(3-piperidyl)benzimidazol-5-yl]-2-[2-(1-piperidyl)-4-pyridyl]-5H-pyrrolo[2,3-b]pyrazine]
c1cc(N2CCCCC2)ccc1-c1cnc2[nH]cc(-c3ccc4ncn(C5CCCNC5)c4c3)c2n1 (centres unmarked) [P-346, 7-[3-(3-piperidyl)benzimidazol-5-yl]-2-[4-(1-piperidyl)phenyl]-5H-pyrrolo[2,3-b]pyrazine]
COc1cc(-c2cnc3[nH]cc(-c4ccc5ncn(C6(C(F)(F)F)CC6)c5c4)c3n2)ccn1 [P-312, 2-(2-methoxy-4-pyridyl)-7-[3-[1-(trifluoromethyl)cyclopropyl]benzimidazol-5-yl]-5H-pyrrolo[2,3-b]pyrazine]
CC(C)(C)n1cnc2ccc(-c3c[nH]c4ncc(-c5cccc(N6CCCS6(=O)=O)c5)cc34)cc21 [P-278, 2-[3-[3-(3-tert-butylbenzimidazol-5-yl)-1H-pyrrolo[2,3-b]pyridin-5-yl]phenyl]-1,2-thiazolidine 1,1-dioxide]
